We go through 13 compounds from patent publication US20260184710A1, “CASITAS B-LINEAGE LYMPHOMA PROTOONCOGENE B (CBL-B) DEGRADING COMPOUNDS AND ASSOCIATED METHODS OF USE” (Arvinas Operations, Inc., priority 2022, published 2026).

By Dmax is commonly meant the largest share of the target that was removed.

Where only a bound is given, the exact number is not on record here.

In the experiment the target is T1, Cbl-b (Homo sapiens, UniProt Q13191).
T1 construct: Cbl-b-HiBit KI Jurkat Cells were purchased from Promega; host or cells: Cbl-b-HiBiT knock-in Jurkat cells
The experiment in a line: Cbl-b Degradation Method B (Nano-Glo HiBiT lytic detection). In kind it is cell-based. To be noted: Cbl-b-HiBit KI Jurkat Cells, incubated at least 6-24 hours; for DC50: half maximal degradation, read-out: Cbl-b Degredation Method B IC50; for Dmax: maximum degradation observed, read-out: Cbl-b Degredation Method B Dmax (%). Summed up: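 Cbl-b-HiBiT knock-in Jurkat cells (20,000/well) were treated after ~24 h plating with an 11-point 1:3 series for 6-24 h at 37° C. Remaining Cbl-b measured by Nano-Glo HiBiT lytic luminescence. DC50 and Dmax expressed as % of control.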

T1 sequence (Q13191 whole entry): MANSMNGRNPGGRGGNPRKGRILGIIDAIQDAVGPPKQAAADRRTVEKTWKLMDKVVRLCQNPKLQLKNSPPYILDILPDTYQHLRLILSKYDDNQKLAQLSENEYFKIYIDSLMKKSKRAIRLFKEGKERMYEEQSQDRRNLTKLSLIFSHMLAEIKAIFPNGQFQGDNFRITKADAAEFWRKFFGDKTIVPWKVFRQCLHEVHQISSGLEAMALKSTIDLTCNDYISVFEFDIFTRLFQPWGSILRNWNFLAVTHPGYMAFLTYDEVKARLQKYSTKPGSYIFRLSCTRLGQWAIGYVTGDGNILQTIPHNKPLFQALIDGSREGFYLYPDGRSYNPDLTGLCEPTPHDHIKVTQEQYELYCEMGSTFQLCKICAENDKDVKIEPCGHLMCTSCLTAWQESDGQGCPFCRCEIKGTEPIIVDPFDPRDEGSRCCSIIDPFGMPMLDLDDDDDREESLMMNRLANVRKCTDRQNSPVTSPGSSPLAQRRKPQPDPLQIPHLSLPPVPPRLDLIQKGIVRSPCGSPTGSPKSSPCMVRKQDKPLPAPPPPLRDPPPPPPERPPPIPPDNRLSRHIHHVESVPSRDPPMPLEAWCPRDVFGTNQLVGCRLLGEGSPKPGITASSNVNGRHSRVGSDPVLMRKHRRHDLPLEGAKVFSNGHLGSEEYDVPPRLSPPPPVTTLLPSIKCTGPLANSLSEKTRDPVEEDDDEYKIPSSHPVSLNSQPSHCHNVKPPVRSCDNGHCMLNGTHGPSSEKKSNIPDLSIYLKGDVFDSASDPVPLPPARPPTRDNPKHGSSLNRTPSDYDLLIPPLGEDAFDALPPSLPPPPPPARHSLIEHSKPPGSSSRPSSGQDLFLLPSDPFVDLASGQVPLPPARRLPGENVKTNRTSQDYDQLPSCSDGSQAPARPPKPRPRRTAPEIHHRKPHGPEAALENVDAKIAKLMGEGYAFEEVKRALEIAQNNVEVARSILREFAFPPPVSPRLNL

For `CC1c2nc(N3CCC(O[C@H]4CC[C@H](CN5CCN(Cc6cc7c(c(C(F)(F)F)c6)CN(c6cccc([C@]8(Cc9nncn9C)C[C@@H](C#N)C8)c6)C7=O)C(C)(C)C5)CC4)CC3)ccc2C(=O)N1C1CCC(=O)NC1=O` (stereo partly drawn) [Example 152, 3-[3-[6-[[4-[[4-[[1-[6-(2,6-dioxo-3-piperidyl)-7-methyl-5-oxo-7H-pyrrolo[3,4-b]pyridin-2-yl]-4-piperidyl]oxy]cyclohexyl]methyl]-2,2-dimethyl-piperazin-1-yl]methyl]-1-oxo-4-(trifluoromethyl)isoindolin-2-yl]phenyl]-3-[(4-methyl-1,2,4-triazol-3-yl)methyl]cyclobutanecarbonitrile], the DC50 is below 5 nM and the Dmax was in the range of 35 to 70%.

For `Cc1cc(N2CCC(CN3CCC4(CC3)CN(c3cc(C(F)(F)F)c5cn(-c6cccc([C@]7(Cc8nncn8C)C[C@@H](C#N)C7)c6)nc5c3)C4)CC2)c(F)c2c1C(=O)N(C1CCC(=O)NC1=O)C2` (stereo partly drawn) [Example 154, 3-[3-[6-[7-[[1-[2-(2,6-dioxo-3-piperidyl)-4-fluoro-7-methyl-1-oxo-isoindolin-5-yl]-4-piperidyl]methyl]-2,7-diazaspiro[3.5]nonan-2-yl]-4-(trifluoromethyl)indazol-2-yl]phenyl]-3-[(4-methyl-1,2,4-triazol-3-yl)methyl]cyclobutanecarbonitrile], the DC50 is above 500 nM.

With `Cn1cnnc1CC1(c2cccc(-n3cc4c(C(F)(F)F)cc(CN5CCC[C@H](CN6CCC[C@H](CN7CCN(c8ccc9c(c8F)CN(C8CCC(=O)NC8=O)C9=O)CC7)C6)C5)cc4n3)c2)COC1` (stereo partly drawn) [Example 155, 3-[4-fluoro-5-[4-[[(3S)-1-[[(3R)-1-[[2-[3-[3-[(4-methyl-1,2,4-triazol-3-yl)methyl]oxetan-3-yl]phenyl]-4-(trifluoromethyl)indazol-6-yl]methyl]-3-piperidyl]methyl]-3-piperidyl]methyl]piperazin-1-yl]-1-oxo-isoindolin-2-yl]piperidine-2,6-dione], the DC50 is above 500 nM.

Take `Cn1cnnc1CC1(c2cccc(N3Cc4c(cc(CN5CCCC(OC6CCN(c7ccc8c(c7F)CN(C7CCC(=O)NC7=O)C8=O)CC6)C5)cc4C(F)(F)F)C3=O)c2)COC1` (stereo not drawn) [Example 156, 3-(4-fluoro-5-{4-[(1-{[2-(3-{3-[(4-methyl-4H-1,2,4-triazol-3-yl)methyl]oxetan-3-yl}phenyl)-3-oxo-7-(trifluoromethyl)-2,3-dihydro-1H-isoindol-5-yl]methyl}piperidin-3-yl)oxy]piperidin-1-yl}-1-oxo-2,3-dihydro-1H-isoindol-2-yl)piperidine-2,6-dione]: the DC50 was above 500 nM.

Take `Cn1cnnc1CC(C)(C)c1cccc(N2Cc3c(cc(CN4CCC[C@H](CN5CCN(C[C@H]6CC[C@@H](OC7CCN(c8ccc9c(c8F)CN(C8CCC(=O)NC8=O)C9=O)CC7)CC6)CC5)C4)cc3C(F)(F)F)C2=O)c1` (stereo partly drawn) [Example 164, 3-[4-fluoro-1-oxo-5-(4-{[(1r,4r)-4-[(4-{[(3S)-1-[(2-{3-[2-methyl-1-(4-methyl-4H-1,2,4-triazol-3-yl)propan-2-yl]phenyl}-3-oxo-7-(trifluoromethyl)-2,3-dihydro-1H-isoindol-5-yl)methyl]piperidin-3-yl]methyl}piperazin-1-yl)methyl]cyclohexyl]oxy}piperidin-1-yl)-2,3-dihydro-1H-isoindol-2-yl]piperidine-2,6-dione]: the DC50 is below 5 nM and the Dmax is above 70%.

Consider `Cn1cnnc1C[C@]1(c2cccc(N3Cc4c(cc(CN5CCC[C@H](CN6CCN(C[C@H]7CC[C@H](OC8CCN(c9ccc%10c(c9F)CN(C9CCC(=O)NC9=O)C%10=O)CC8)CC7)CC6)C5)cc4C(F)(F)F)C3=O)c2)C[C@@H](C#N)C1` (stereo partly drawn) [Example 168, (1r,3r)-3-[(4-methyl-4H-1,2,4-triazol-3-yl)methyl]-3-[3-(1-oxo-6-{[(3S)-3-[(4-{[(1r,4r)-4-({1-[2-(2,6-dioxopiperidin-3-yl)-4-fluoro-1-oxo-2,3-dihydro-1H-isoindol-5-yl]piperidin-4-yl}oxy)cyclohexyl]methyl}piperazin-1-yl)methyl]piperidin-1-yl]methyl}-4-(trifluoromethyl)-2,3-dihydro-1H-isoindol-2-yl)phenyl]cyclobutane-1-carbonitrile], for which the DC50 was below 5 nM and the Dmax fell in the range of 35 to 70%.

Consider `Cc1cc(N2CCC(CN3CCCN(c4cc5c(c(C(F)(F)F)c4)CN(c4cccc([C@]6(Cc7nncn7C)C[C@@H](C#N)C6)c4)C5=O)CC3)CC2)c(F)c2c1C(=O)N(C1CCC(=O)NC1=O)C2` (stereo partly drawn) [Example 170, (1r,3r)-3-(3-{6-[4-({1-[2-(2,6-dioxopiperidin-3-yl)-4-fluoro-7-methyl-1-oxo-2,3-dihydro-1H-isoindol-5-yl]piperidin-4-yl}methyl)-1,4-diazepan-1-yl]-1-oxo-4-(trifluoromethyl)-2,3-dihydro-1H-isoindol-2-yl}phenyl)-3-[(4-methyl-4H-1,2,4-triazol-3-yl)methyl]cyclobutane-1-carbonitrile], for which the DC50 was above 500 nM.

As to `CC1c2nc(N3CCC(O[C@H]4CC[C@H](CN5CCCN(c6cc7c(c(C(F)(F)F)c6)CN(c6cccc([C@]8(Cc9nncn9C)C[C@@H](C#N)C8)c6)C7=O)CC5)CC4)CC3)ccc2C(=O)N1C1CCC(=O)NC1=O` (stereo partly drawn) [Example 180, (1r,3r)-3-[(4-methyl-4H-1,2,4-triazol-3-yl)methyl]-3-{3-[1-oxo-6-(4-{[(1r,4r)-4-({1-[6-(2,6-dioxopiperidin-3-yl)-7-methyl-5-oxo-5H,6H,7H-pyrrolo[3,4-b]pyridin-2-yl]piperidin-4-yl}oxy)cyclohexyl]methyl}-1,4-diazepan-1-yl)-4-(trifluoromethyl)-2,3-dihydro-1H-isoindol-2-yl]phenyl}cyclobutane-1-carbonitrile], the DC50 is below 5 nM and the Dmax is below 35%.

For the compound `CC1c2nc(N3CCC(O[C@H]4CC[C@H](CN5C[C@@H]6C[C@H]5CN6c5cc6c(c(C(F)(F)F)c5)CN(c5cccc([C@]7(Cc8nncn8C)C[C@H](C#N)C7)c5)C6=O)CC4)CC3)ccc2C(=O)N1C1CCC(=O)NC1=O` (stereo partly drawn) [Example 182, (1r,3r)-3-[(4-methyl-4H-1,2,4-triazol-3-yl)methyl]-3-(3-{1-oxo-6-[(1S,4S)-5-{[(1r,4r)-4-({1-[6-(2,6-dioxopiperidin-3-yl)-7-methyl-5-oxo-5H,6H,7H-pyrrolo[3,4-b]pyridin-2-yl]piperidin-4-yl}oxy)cyclohexyl]methyl}-2,5-diazabicyclo[2.2.1]heptan-2-yl]-4-(trifluoromethyl)-2,3-dihydro-1H-isoindol-2-yl}phenyl)cyclobutane-1-carbonitrile], the DC50 was 5 to 50 nM and the Dmax is below 35%.

Consider `CC1c2nc(N3CCC(OC4CCC(CN5CC6CCC(C5)N6c5cc6c(c(C(F)(F)F)c5)CN(c5cccc(C7(Cc8nncn8C)CC(C#N)C7)c5)C6=O)CC4)CC3)ccc2C(=O)N1C1CCC(=O)NC1=O` (stereo not drawn) [Example 183, (1r,3r)-3-[(4-methyl-4H-1,2,4-triazol-3-yl)methyl]-3-{3-[1-oxo-6-(3-{[(1r,4r)-4-({1-[6-(2,6-dioxopiperidin-3-yl)-7-methyl-5-oxo-5H,6H,7H-pyrrolo[3,4-b]pyridin-2-yl]piperidin-4-yl}oxy)cyclohexyl]methyl}-3,8-diazabicyclo[3.2.1]octan-8-yl)-4-(trifluoromethyl)-2,3-dihydro-1H-isoindol-2-yl]phenyl}cyclobutane-1-carbonitrile], for which the DC50 is 5 to 50 nM and the Dmax was below 35%.

On to `Cc1cc(N2CCC(CN3CCC4(CC3)CN(c3cc5c(c(C(F)(F)F)c3)CN(c3cccc(C6(Cc7nncn7C)CC6)c3)C5=O)C4)CC2)c(F)c2c1C(=O)N(C1CCC(=O)NC1=O)C2` (stereo not drawn) [Example 191, 3-{4-fluoro-7-methyl-5-[4-({2-[2-(3-{1-[(4-methyl-4H-1,2,4-triazol-3-yl)methyl]cyclopropyl}phenyl)-3-oxo-7-(trifluoromethyl)-2,3-dihydro-1H-isoindol-5-yl]-2,7-diazaspiro[3.5]nonan-7-yl}methyl)piperidin-1-yl]-1-oxo-2,3-dihydro-1H-isoindol-2-yl}piperidine-2,6-dione], for which the DC50 was below 5 nM and the Dmax lay in the range of 35 to 70%.

For `CC(C)n1c(=O)n(C2CCC(=O)NC2=O)c2ccc(N3CCC(CN4CCC5(CC4)CN(c4cc6c(c(C(F)(F)F)c4)CN(c4cccc([C@]7(Cc8nncn8C)C[C@@H](C#N)C7)c4)C6=O)C5)CC3)cc21` (stereo partly drawn) [Example 192, (1r,3r)-3-(3-{6-[7-({1-[1-(2,6-dioxopiperidin-3-yl)-2-oxo-3-(propan-2-yl)-2,3-dihydro-1H-1,3-benzodiazol-5-yl]piperidin-4-yl}methyl)-2,7-diazaspiro[3.5]nonan-2-yl]-1-oxo-4-(trifluoromethyl)-2,3-dihydro-1H-isoindol-2-yl}phenyl)-3-[(4-methyl-4H-1,2,4-triazol-3-yl)methyl]cyclobutane-1-carbonitrile], the DC50 was below 5 nM and the Dmax lay in the range of 35 to 70%.

In the case of `O=C1CCC(N2Cc3c(ccc(N4CCC(O[C@H]5CC[C@H](CN6CCN(Cc7cc8c(c(C(F)(F)F)c7)CN(c7cccc(C9(Cc%10nnc[nH]%10)COC9)c7)C8=O)CC6)CC5)CC4)c3F)C2=O)C(=O)N1` (stereo partly drawn) [Example 197, 3-[4-fluoro-1-oxo-5-(4-{[(1r,4r)-4-[(4-{[3-oxo-2-(3-{3-[(4H-1,2,4-triazol-3-yl)methyl]oxetan-3-yl}phenyl)-7-(trifluoromethyl)-2,3-dihydro-1H-isoindol-5-yl]methyl}piperazin-1-yl)methyl]cyclohexyl]oxy}piperidin-1-yl)-2,3-dihydro-1H-isoindol-2-yl]piperidine-2,6-dione], the DC50 is above 500 nM.
